Assay results published in patent publication EP4678638A1, “NEW E3 UBIQUITIN LIGASE LIGAND, PROTEIN DEGRADATION AGENT AND USE THEREOF” (priority 2023, dated 2024).
Read-outs that look alike come from different tables or passages of the source.

Legend:
MCF7 = assay: CCK-8 proliferation, MCF7 (MCF-7); assay type: cell-based; settings: Homo sapiens, MCF7, CCK-8
Summary of the method: (§1)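 CCK-8 viability readout; IC50 from growth-inhibition curve fitting. Cells plated, dosed 24h later with a 10-point series, top 10µM, 5-fold steps. Culture at 37°C, 5% CO2.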

Kasumi-1 = assay: CCK-8 proliferation, Kasumi-1; assay type: cell-based, Human; settings: read-out: Inhibitory activity (IC50) on tumor cell proliferation, Kasumi-1
Method: (§2) The tumor cells used herein were cultured in a cell culture medium listed in table A1 at 37°C in an incubator with 5% CO2. Prior to experimentation, all cell lines used were correctly identified by STR profiling, and tested negative for mycoplasma contamination using a mycoplasma detection kit through routine screenings. Table A1. Tumor cells and cell culture medium used in the present disclosure
(§3) IC50 values of the compounds of the present disclosure (including the compounds in Table 1, and compounds of examples) were measured using the Meilun Cell Counting Kit-8 kit from Dalian Meilun Biotech Co., Ltd. Assay details are as follows: tumor cells were seeded in a 96-well plate at a density listed in Table A2. After 24h, 100 µL of the inoculated cells were treated with 0.5µL of the compounds of the present disclosure (including the compounds in Tables 1 and 2, and compounds of examples) at 10 different successively decreasing concentrations (starting at the highest concentration of 10µM; 5-fold serial dilutions). After the cells were treated with the compounds of the present disclosure for a period of time, the cell viability detection reagent was added to the culture medium for cell viability assessment according to the instructions provided with the CCK-8 kit. […] The growth inhibition of the compounds of the present disclosure on cells was plotted by Prism Graphpad software, and the IC50 values of the compounds of the present disclosure were calculated therefrom. […] Seeding protocol and treatment time for tumor cells

CDK4 = biological target: T1, CDK4 (Homo sapiens, UniProt P11802); assay: Western blot degradation of CDK4 (MDA-MB-231 Cell); assay type: cell-based; settings: Table D3
T1 construct: evaluate the effects of the compounds of the present disclosure on the expression of target proteins in cells; endogenous in cells; host or cells: MDA-MB-231
Summary of the method: (§4)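 Degradation is assessed by immunoblotting lysates of treated cells. Target bands are quantified by grayscale and normalised to an internal control, so degradation rate equals 100% minus % remaining.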

MV-4-11 = assay: CCK-8 proliferation, MV-4-11; assay type: cell-based, Human; settings: CCK-8, 72 or 96 hours, read-out: Inhibitory activity (IC50) on tumor cell proliferation, MV-4-11
Summary of the method: as §1

CDK6 = biological target: T2, CDK6 (Homo sapiens, UniProt Q00534); assay: Western blot degradation of CDK6 (MDA-MB-231 Cell); assay type: cell-based; settings: Table D3
T2 construct: evaluate the effects of the compounds of the present disclosure on the expression of target proteins in cells; endogenous in cells; host or cells: MDA-MB-231
Summary of the method: as §4

H1975 = assay: CCK-8 proliferation, NCI-H1975 (H1975); assay type: cell-based, Human; settings: Homo sapiens, NCI-H1975; CCK-8; 96 hours; read-out: Inhibitory activity (IC50) on tumor cell proliferation, H1975
Summary of the method: as §1

HCC827 = assay: CCK-8 proliferation, HCC827; assay type: cell-based, Human; settings: Homo sapiens, HCC827; CCK-8; 96 hours; read-out: Inhibitory activity (IC50) on tumor cell proliferation, HCC827
Method: as §2, §3

PC-9 = assay: CCK-8 proliferation, PC-9; assay type: cell-based, Human; settings: Homo sapiens, PC-9; CCK-8; 96 hours; read-out: Inhibitory activity (IC50) on tumor cell proliferation, PC-9
Method: as §2, §3

CCRF-CEM = assay: CCK-8 proliferation, CCRF-CEM; assay type: cell-based, Human; settings: CCK-8, 96 hours, read-out: Inhibitory activity (IC50) on tumor cell proliferation, CCRF-CEM
Summary of the method: as §1

EGFR = assay: Western blot degradation of EGFR (H1975 Cell); assay type: cell-based, Human; settings: Table D2
Summary of the method: as §4

GSPT1 = biological target: T3, GSPT1 (Homo sapiens, UniProt P15170+Q96SW2); assay: Western blot degradation of GSPT1 (hPBMC); assay type: cell-based; settings: Table D16
T3 construct: evaluate the effects of the compounds of the present disclosure on the expression of target proteins in cells; endogenous in cells; host or cells: hPBMC
Summary of the method: as §4

WEE1 = biological target: T4, WEE1 (Homo sapiens, UniProt P30291+Q96SW2); assay: Western blot degradation of WEE1 (hPBMC); assay type: cell-based; settings: Table D16
T4 construct: evaluate the effects of the compounds of the present disclosure on the expression of target proteins in cells; endogenous in cells; host or cells: hPBMC
Summary of the method: as §4

MDA-MB-231 = assay: CCK-8 proliferation, MDA-MB-231; assay type: cell-based; settings: Homo sapiens, MDA-MB-231; CCK-8; 96 hours; read-out: Inhibitory activity (IC50) on tumor cell proliferation, MDA-MB-231
Summary of the method: as §1

IKZF3 = biological target: T5, IKZF3 (Homo sapiens, UniProt Q96SW2+Q9UKT9); assay: Western blot degradation of IKZF3 (hPBMC); assay type: cell-based; settings: Table D16
T5 construct: evaluate the effects of the compounds of the present disclosure on the expression of target proteins in cells; endogenous in cells; host or cells: hPBMC
Summary of the method: as §4

CK1a = biological target: T6, CK1a (Homo sapiens, UniProt P48729+Q96SW2); assay: Western blot degradation of CK1a (hPBMC); assay type: cell-based; settings: Table D16
T6 construct: evaluate the effects of the compounds of the present disclosure on the expression of target proteins in cells; endogenous in cells; host or cells: hPBMC
Summary of the method: as §4

IKZF1 = biological target: T7, IKZF1 (Homo sapiens, UniProt Q13422+Q96SW2); assay: Western blot degradation of IKZF1 (hPBMC); assay type: cell-based; settings: Table D16
T7 construct: evaluate the effects of the compounds of the present disclosure on the expression of target proteins in cells; endogenous in cells; host or cells: hPBMC
Summary of the method: as §4

IKZF2 = biological target: T8, IKZF2 (Homo sapiens, UniProt Q96SW2+Q9UKS7); assay: Western blot degradation of IKZF2 (hPBMC); assay type: cell-based; settings: Table D16
T8 construct: evaluate the effects of the compounds of the present disclosure on the expression of target proteins in cells; endogenous in cells; host or cells: hPBMC
Summary of the method: as §4

[1] = Homo sapiens, Kasumi 1, 72 hours

T1 sequence (P11802 whole entry): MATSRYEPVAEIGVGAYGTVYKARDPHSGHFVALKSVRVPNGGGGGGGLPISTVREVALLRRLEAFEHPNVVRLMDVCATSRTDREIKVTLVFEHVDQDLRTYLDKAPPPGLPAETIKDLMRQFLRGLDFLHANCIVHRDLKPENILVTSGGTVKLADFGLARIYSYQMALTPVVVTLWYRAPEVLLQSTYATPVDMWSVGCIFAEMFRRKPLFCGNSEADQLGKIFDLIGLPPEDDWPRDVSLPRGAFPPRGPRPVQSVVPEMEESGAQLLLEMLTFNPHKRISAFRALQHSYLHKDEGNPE
T5 sequence (Q9UKT9 whole entry): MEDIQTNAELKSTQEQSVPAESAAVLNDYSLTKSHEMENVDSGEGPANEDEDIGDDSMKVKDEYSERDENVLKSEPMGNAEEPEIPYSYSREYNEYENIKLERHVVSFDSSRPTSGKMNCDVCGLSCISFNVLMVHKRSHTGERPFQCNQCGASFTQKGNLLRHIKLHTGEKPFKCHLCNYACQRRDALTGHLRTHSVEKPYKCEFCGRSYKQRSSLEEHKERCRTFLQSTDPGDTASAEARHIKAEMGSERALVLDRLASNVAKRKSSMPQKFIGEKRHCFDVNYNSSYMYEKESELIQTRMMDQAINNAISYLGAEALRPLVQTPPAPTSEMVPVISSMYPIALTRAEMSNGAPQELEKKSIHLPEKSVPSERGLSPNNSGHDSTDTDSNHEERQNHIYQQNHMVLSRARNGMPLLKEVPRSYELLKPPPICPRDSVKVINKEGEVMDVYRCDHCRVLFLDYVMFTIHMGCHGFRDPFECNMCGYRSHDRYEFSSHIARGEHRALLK
T5 sequence (Q96SW2 whole entry): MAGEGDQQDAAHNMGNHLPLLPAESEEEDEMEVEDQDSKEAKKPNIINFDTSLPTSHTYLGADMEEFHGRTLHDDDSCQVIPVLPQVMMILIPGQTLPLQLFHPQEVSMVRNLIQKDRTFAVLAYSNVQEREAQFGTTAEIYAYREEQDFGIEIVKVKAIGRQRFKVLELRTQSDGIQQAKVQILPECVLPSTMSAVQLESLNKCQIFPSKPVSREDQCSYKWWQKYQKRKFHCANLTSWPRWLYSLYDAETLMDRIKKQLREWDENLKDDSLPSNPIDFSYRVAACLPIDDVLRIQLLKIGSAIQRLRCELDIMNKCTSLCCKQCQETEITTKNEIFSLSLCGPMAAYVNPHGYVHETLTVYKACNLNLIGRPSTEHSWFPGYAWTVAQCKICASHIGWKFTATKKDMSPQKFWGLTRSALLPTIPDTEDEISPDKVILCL
T5 sequence (Q16531 whole entry partner): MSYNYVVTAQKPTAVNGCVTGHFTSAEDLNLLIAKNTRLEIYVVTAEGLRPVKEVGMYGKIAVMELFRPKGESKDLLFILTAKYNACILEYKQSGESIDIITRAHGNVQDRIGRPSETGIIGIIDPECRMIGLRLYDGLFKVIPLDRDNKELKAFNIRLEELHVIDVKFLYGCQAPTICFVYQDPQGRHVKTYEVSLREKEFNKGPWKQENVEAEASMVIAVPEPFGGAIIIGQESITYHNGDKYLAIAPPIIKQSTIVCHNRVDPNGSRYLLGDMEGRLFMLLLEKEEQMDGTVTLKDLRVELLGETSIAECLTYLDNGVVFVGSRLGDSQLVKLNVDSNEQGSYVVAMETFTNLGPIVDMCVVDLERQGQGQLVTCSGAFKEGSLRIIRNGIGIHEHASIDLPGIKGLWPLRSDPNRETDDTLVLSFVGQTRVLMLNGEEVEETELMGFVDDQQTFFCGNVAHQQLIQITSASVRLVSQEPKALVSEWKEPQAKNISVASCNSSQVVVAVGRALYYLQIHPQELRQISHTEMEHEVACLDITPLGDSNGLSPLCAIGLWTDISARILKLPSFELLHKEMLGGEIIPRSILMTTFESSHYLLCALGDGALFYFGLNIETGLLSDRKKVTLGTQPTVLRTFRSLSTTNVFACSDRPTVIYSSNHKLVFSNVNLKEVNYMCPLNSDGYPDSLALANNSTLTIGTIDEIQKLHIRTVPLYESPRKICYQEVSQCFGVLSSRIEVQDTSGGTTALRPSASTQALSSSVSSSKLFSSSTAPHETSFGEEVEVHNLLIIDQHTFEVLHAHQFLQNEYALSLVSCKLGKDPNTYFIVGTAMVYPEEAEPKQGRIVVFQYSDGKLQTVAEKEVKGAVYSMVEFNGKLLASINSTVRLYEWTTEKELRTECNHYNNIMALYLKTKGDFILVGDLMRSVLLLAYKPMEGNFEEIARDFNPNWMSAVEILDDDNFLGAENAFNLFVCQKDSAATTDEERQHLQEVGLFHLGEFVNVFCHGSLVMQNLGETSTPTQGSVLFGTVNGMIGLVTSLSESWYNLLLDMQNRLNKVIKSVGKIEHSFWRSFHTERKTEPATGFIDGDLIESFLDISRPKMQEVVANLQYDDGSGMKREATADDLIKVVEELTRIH
T2 sequence (Q00534 whole entry): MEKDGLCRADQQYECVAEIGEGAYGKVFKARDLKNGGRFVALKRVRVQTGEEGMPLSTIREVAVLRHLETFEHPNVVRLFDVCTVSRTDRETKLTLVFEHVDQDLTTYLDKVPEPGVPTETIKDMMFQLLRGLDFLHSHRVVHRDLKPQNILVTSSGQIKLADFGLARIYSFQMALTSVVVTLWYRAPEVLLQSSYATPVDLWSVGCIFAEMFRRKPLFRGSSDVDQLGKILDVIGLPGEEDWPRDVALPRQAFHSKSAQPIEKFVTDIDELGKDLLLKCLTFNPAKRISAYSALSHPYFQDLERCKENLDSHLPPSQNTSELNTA
T7 sequence (Q13422 whole entry): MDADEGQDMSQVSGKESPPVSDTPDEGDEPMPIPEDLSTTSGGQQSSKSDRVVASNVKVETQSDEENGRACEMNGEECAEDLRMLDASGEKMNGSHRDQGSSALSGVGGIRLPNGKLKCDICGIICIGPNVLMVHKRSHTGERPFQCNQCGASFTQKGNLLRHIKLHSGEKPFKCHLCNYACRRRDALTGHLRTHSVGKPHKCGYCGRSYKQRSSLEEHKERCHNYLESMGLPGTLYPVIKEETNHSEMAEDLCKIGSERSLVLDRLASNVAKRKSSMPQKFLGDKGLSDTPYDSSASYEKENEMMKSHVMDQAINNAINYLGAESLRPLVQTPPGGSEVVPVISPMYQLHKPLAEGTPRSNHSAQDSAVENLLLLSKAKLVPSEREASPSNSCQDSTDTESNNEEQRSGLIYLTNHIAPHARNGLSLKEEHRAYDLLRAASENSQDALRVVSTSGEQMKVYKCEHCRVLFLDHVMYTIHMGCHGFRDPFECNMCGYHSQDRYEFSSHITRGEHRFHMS
T7 sequence (Q96SW2 whole entry): as the sequence (Q96SW2 whole entry) above
T7 sequence (Q16531 whole entry partner): as the sequence (Q16531 whole entry partner) above
T8 sequence (Q9UKS7 whole entry): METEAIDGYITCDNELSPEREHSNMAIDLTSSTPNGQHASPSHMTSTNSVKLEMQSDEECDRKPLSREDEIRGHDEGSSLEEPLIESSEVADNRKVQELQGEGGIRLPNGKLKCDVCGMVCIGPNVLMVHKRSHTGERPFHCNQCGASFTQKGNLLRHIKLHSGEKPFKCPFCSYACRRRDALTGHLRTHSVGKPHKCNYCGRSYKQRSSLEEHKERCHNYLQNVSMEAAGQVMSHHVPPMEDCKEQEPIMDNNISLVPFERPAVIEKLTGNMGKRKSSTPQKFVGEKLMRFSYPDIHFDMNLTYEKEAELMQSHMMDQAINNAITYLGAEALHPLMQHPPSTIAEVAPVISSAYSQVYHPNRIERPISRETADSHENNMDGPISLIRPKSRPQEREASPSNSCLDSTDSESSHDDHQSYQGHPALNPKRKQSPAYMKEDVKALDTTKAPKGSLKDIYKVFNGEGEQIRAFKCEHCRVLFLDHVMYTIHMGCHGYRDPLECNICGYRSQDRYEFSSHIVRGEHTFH
T8 sequence (Q96SW2 whole entry): as the sequence (Q96SW2 whole entry) above
T8 sequence (Q16531 whole entry partner): as the sequence (Q16531 whole entry partner) above
T4 sequence (P30291 whole entry): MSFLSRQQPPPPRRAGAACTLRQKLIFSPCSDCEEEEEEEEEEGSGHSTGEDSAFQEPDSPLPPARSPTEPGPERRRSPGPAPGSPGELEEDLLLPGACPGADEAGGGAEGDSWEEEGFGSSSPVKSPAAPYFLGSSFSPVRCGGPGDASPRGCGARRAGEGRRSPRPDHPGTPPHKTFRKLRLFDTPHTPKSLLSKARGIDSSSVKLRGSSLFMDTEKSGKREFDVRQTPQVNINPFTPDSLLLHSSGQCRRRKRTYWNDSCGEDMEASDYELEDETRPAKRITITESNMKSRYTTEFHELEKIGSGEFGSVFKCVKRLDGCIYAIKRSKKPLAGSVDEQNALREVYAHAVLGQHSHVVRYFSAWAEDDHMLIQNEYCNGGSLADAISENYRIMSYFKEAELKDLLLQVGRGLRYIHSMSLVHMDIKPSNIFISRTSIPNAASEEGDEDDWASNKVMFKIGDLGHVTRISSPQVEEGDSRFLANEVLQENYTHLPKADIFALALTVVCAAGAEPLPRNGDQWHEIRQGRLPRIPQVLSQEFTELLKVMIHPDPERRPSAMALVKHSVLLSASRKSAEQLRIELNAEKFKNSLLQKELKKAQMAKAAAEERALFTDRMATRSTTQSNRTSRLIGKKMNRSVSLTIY
T4 sequence (Q96SW2 whole entry): as the sequence (Q96SW2 whole entry) above
T4 sequence (Q16531 whole entry partner): as the sequence (Q16531 whole entry partner) above

## Cc1nc2c(F)cc(-c3nc(Nc4ccc(CN5CCN(Cc6ccc(N7CCC(=O)NC7=O)nc6)CC5)cn4)ncc3F)cc2n1C(C)C [GT-06668, 1-(5-((4-((6-((5-fluoro-4-(4-fluoro-1-isopropyl-2-methyl-1H-benzo[d]imidazol-6-yl)pyrimidin-2-yl)amino)pyridin-3-yl)methyl)piperazin-1-yl)methyl)pyridin-2-yl)dihydropyrimidine-2,4(1H,3H)-dione]
MCF7; read-out: Inhibitory activity (IC50) on tumor cell proliferation, MCF7
  IC50: 50 to 100 nM
Kasumi-1; [1]
  IC50: 100 to 500 nM
CDK4
  Degradation of substrate protein CDK4 (substrate protein remaining %): A (A is defined as 0% ≤ substrate protein remaining % ≤ 80%)
MV-4-11; Homo sapiens, MV4-11
  IC50: 50 to 100 nM
CDK6
  Degradation of substrate protein CDK6 (substrate protein remaining %): A (A is defined as 0% ≤ substrate protein remaining % ≤ 80%)

## Cc1cc(S(=O)(=O)N2CCN(Cc3cccc(N4CCC(=O)NC4=O)c3)CC2)ccc1Nc1ncc(Br)c(Nc2cccc(F)c2C(N)=O)n1 [GT-06832, 2-((5-bromo-2-((4-((4-(3-(2,4-dioxotetrahydropyrimidin-1(2H)-yl)benzyl)piperazin-1-yl)sulfonyl)-2-methylphenyl)amino)pyrimidin-4-yl)amino)-6-fluorobenzamide]
Kasumi-1; [1]
  IC50: 500 to 1000 nM
MV-4-11; Homo sapiens, MV4-11
  IC50: 100 to 500 nM

## O=C1CCN(c2ccc(CN3CCN(c4ccc(Nc5ncc6nc(Nc7ccccc7)n(C7CCCC7)c6n5)cc4)CC3)cc2)C(=O)N1 [GT-05837, 1-(4-((4-(4-((9-cyclopentyl-8-(phenylamino)-9H-purin-2-yl)amino)phenyl)piperazin-1-yl)methyl)phenyl)dihydropyrimidine-2,4(1H,3H)-dione]
H1975
  IC50: 100 to 500 nM
HCC827
  IC50: 1 to 10 nM
PC-9
  IC50: 1 to 10 nM

## CN1CCN(Cc2ccc(NC(=O)c3[nH]ncc3Nc3ncnc4[nH]ccc34)cc2)CC1 [FN-1501, reference compound]
Kasumi-1; 72 hours
  IC50: 100 to 500 nM
MV-4-11
  IC50: 1 to 10 nM
CCRF-CEM
  IC50: 100 to 500 nM

## O=C1CCC(c2ccc(CN3CCN(c4ccc(Nc5ncc6nc(Nc7ccccc7)n(C7CCCC7)c6n5)cc4)CC3)cc2F)C(=O)N1 (stereo not drawn) [GT-03741, 3-(4-((4-(4-((9-cyclopentyl-8-(phenylamino)-9H-purin-2-yl)amino)phenyl)piperazin-1-yl)methyl)-2-fluorophenyl)piperidine-2,6-dione]
HCC827
  IC50: 10 to 50 nM
PC-9
  IC50: 10 to 50 nM

## Cc1ccsc1C(=O)n1nc(Nc2ccc(S(=O)(=O)N3CCN(Cc4ccc(N5CCC(=O)NC5=O)nc4)CC3)cc2)nc1N [GT-06861, 1-(5-((4-((4-((5-amino-1-(3-methylthiophene-2-carbonyl)-1H-1,2,4-triazol-3-yl)amino)phenyl)sulfonyl)piperazin-1-yl)methyl)pyridin-2-yl)dihydropyrimidine-2,4(1H,3H)-dione]
Kasumi-1; [1]
  IC50: 500 to 1000 nM
MV-4-11; Homo sapiens, MV4-11
  IC50: 100 to 500 nM
CCRF-CEM; Homo sapiens, CCRF-CEM
  IC50: 500 to 1000 nM

## Cc1ccsc1C(=O)n1nc(Nc2ccc(S(=O)(=O)N3CCN(Cc4cccc(NC5CCC(=O)NC5=O)c4)CC3)cc2)nc1N (stereo not drawn) [GT-06862, 3-((3-((4-((4-((5-amino-1-(3-methylthiophene-2-carbonyl)-1H-1,2,4-triazol-3-yl)amino)phenyl)sulfonyl)piperazin-1-yl)methyl)phenyl)amino)piperidine-2,6-dione]
Kasumi-1; [1]
  IC50: 100 to 500 nM
MV-4-11; Homo sapiens, MV4-11
  IC50: 100 to 500 nM

## O=C1CCC(Nc2cccc(CN3CCN(C4CCN(c5ccc(Nc6ncc7nc(Nc8ccccc8)n(C8CCCC8)c7n6)cc5)CC4)CC3)c2)C(=O)N1 (stereo not drawn) [GT-05943, 3-((3-((4-(1-(4-((9-cyclopentyl-8-(phenylamino)-9H-purin-2-yl)amino)phenyl)piperidin-4-yl)piperazin-1-yl)methyl)phenyl)amino)piperidine-2,6-dione]
HCC827
  IC50: 10 to 50 nM
PC-9
  IC50: 10 to 50 nM
EGFR
  Degradation of substrate protein EGFR (substrate protein remaining %): A (A is defined as 0% ≤ substrate protein remaining % ≤ 80%)

## CN(Cc1ccc(N2CCC(=O)NC2=O)nc1)C1CCN(c2ccc(Nc3ncc4nc(Nc5ccccc5)n(C5CCCC5)c4n3)cc2)CC1 [GT-05871, 1-(5-(((1-(4-((9-cyclopentyl-8-(phenylamino)-9H-purin-2-yl)amino)phenyl)piperidin-4-yl)(methyl)amino)methyl)pyridin-2-yl)dihydropyrimidine-2,4(1H,3H)-dione]
H1975
  IC50: 100 to 500 nM
HCC827
  IC50: 10 to 50 nM
PC-9
  IC50: 1 to 10 nM

## O=C1CCN(c2cc(CCl)ccn2)C(=O)N1 [GT-07078, 1-(4-(Chloromethyl)pyridin-2-yl)dihydropyrimidine-2,4(1H,3H)-dione]
GSPT1
  Degradation of substrate protein GSPT1 (substrate protein remaining %): A (A is defined as 0% ≤ substrate protein remaining % ≤ 80%)
WEE1
  Degradation of substrate protein WEE1 (substrate protein remaining %): B (B is defined as substrate protein remaining % > 80%)
MCF7; read-out: Inhibitory activity (IC50) on tumor cell proliferation, MCF-7
  IC50: 1000 to 5000 nM
MDA-MB-231
  IC50: 1000 to 5000 nM
IKZF3
  Degradation of substrate protein IKZF3 (substrate protein remaining %): B (B is defined as substrate protein remaining % > 80%)
CK1a
  Degradation of substrate protein CKla (substrate protein remaining %): B (B is defined as substrate protein remaining % > 80%)
IKZF1
  Degradation of substrate protein IKZF1 (substrate protein remaining %): B (B is defined as substrate protein remaining % > 80%)
IKZF2
  Degradation of substrate protein IKZF2 (substrate protein remaining %): B (B is defined as substrate protein remaining % > 80%)

## Cc1cc(S(=O)(=O)N2CCN(Cc3ccc(N4CCC(=O)NC4=O)cc3)CC2)ccc1Nc1ncc(Br)c(Nc2cccc(F)c2C(N)=O)n1 [GT-06831, 2-((5-bromo-2-((4-((4-(4-(2,4-dioxotetrahydropyrimidin-1(2H)-yl)benzyl)piperazin-1-yl)sulfonyl)-2-methylphenyl)amino)pyrimidin-4-yl)amino)-6-fluorobenzamide]
Kasumi-1; [1]
  IC50: 500 to 1000 nM
MV-4-11; Homo sapiens, MV4-11
  IC50: 100 to 500 nM

## Cc1ccsc1C(=O)n1nc(Nc2ccc(S(=O)(=O)N3CCN(Cc4ccc(N5CCC(=O)NC5=O)cc4)CC3)cc2)nc1N [GT-06856, 1-(4-((4-((4-((5-amino-1-(3-methylthiophene-2-carbonyl)-1H-1,2,4-triazol-3-yl)amino)phenyl)sulfonyl)piperazin-1-yl)methyl)phenyl)dihydropyrimidine-2,4(1H,3H)-dione]
Kasumi-1; [1]
  IC50: 500 to 1000 nM
MV-4-11; Homo sapiens, MV4-11
  IC50: 100 to 500 nM
CCRF-CEM; Homo sapiens, CCRF-CEM
  IC50: 500 to 1000 nM

## Cc1cc(S(=O)(=O)N2CCN(Cc3ccc(N4CCC(=O)NC4=O)nc3)CC2)ccc1Nc1ncc(Br)c(Nc2cccc(F)c2C(N)=O)n1 [GT-06834, 2-((5-bromo-2-((4-((4-((6-(2,4-dioxotetrahydropyrimidin-1(2H)-yl)pyridin-3-yl)methyl)piperazin-1-yl)sulfonyl)-2-methylphenyl)amino)pyrimidin-4-yl)amino)-6-fluorobenzamide]
Kasumi-1; [1]
  IC50: 500 to 1000 nM
MV-4-11; Homo sapiens, MV4-11
  IC50: 100 to 500 nM
CCRF-CEM; Homo sapiens, CCRF-CEM
  IC50: 500 to 1000 nM
